Molecules are shown by their SMILES.

The values that follow come from patent publication US20070059778A1, “Modified colony assay” (priority 2005, published 2007).

The experiment deals with erythroid colonies (hematopoietic progenitors). Kind of experiment: Hematopoietic CFC assay with anti-GpA-FITC staining, erythroid colony formation in cultures containing 5-FU. Format: cell-based, Human. The conditions noted are these: erythroid colonies stained with anti-GPA-FITC, day 14, densitometry. The protocol:
Human BM, CB or MPB mononuclear cells were suspended in a methylcellulose-based culture medium containing cytokines (MethoCult™ H4434, StemCell Technologies) (StemCell Technologies Methocult™ Flyer; StemCell Technologies 2003 Catalogue pp. 86-125) at a concentration of between 1×10^4 and 1×10^5 cells per 1.1 mL of medium. The culture medium was then dispensed into 35 mm culture dishes using 3 mL syringes with blunt end needles, with 1.1 mL of medium per dish. All cultures were incubated for a total of 14 days at 37° C., 5% CO2, 100% humidity. Colonies were enumerated and classified by bright-field microscopy into the following categories based on size and morphology: CFU-E, BFU-E, CFU-GM, CFU-GEMM (StemCell Technologies Colony Atlas).
Standard CFC assays were prepared as described in example 1. […] After 14 days of culture at 37° C. the dishes were inspected using an inverted fluorescence microscope. […] The erythroid colonies were counted using bright field and fluorescence. Both methods gave very similar results: 27 colonies per dish by bright field illumination; 26 colonies by fluorescence.
A CFC-assay was set up as described in Example 2. […] Colonies were examined and photographed on day 14 and colony size and fluorescence intensity were analysed by densitometry.

With `O=c1[nH]cc(F)c(=O)[nH]1` [5-FU, 5-Fluoro-Uracil], where the note is “versus cultures without 5-FU (FIG. 4A)”, the “size of fluorescent colonies, as measured by surface area and perimeter length” value is “decreased”. In addition, the “fluorescence intensity of colonies” value (versus cultures without 5-FU (FIG. 4B)) is on record as “decreased”.
